Test results from ChEMBL document CHEMBL1909046, “DrugMatrix in vitro pharmacology data”.

Key:
[1] = DRUGMATRIX: Sigma2 radioligand binding (ligand: [3H] Ifenprodil); format: cell membranes, Rattus norvegicus, Wistar, Brain, Membrane; conditions: Not Active = under 50% inhibition at 10 µM
[2] = target: T1, C-C chemokine receptor type 4 (Homo sapiens, UniProt P51679); format: cell membranes, Membrane; conditions: chem-1; note: in other assays of this panel Not Active means under 50% inhibition at 10 µM
T1 sequence (P51679 whole entry): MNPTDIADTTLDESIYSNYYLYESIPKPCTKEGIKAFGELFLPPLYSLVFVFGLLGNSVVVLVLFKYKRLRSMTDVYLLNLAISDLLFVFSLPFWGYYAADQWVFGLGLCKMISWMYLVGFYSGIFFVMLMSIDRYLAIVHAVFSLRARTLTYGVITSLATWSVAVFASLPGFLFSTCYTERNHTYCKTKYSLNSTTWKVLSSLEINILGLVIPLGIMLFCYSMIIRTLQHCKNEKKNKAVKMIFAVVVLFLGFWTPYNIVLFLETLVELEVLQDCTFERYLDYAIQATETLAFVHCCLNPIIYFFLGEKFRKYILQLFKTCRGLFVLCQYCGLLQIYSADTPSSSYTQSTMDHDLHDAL

[3] = target: Sodium-dependent dopamine transporter (Homo sapiens, UniProt Q01959); assay: DRUGMATRIX: Dopamine Transporter radioligand binding (ligand: [125I] RTI-55); format: cell membranes, CHO-K1, Membrane; conditions: cho-k1; Not Active = under 50% inhibition at 10 µM
Endothelin-1 receptor = target: T2, Endothelin-1 receptor (Homo sapiens, UniProt P25101); format: cell membranes, CHO-K1, Membrane; conditions: cho-k1; note: in other assays of this panel Not Active means under 50% inhibition at 10 µM
T2 sequence (P25101 whole entry): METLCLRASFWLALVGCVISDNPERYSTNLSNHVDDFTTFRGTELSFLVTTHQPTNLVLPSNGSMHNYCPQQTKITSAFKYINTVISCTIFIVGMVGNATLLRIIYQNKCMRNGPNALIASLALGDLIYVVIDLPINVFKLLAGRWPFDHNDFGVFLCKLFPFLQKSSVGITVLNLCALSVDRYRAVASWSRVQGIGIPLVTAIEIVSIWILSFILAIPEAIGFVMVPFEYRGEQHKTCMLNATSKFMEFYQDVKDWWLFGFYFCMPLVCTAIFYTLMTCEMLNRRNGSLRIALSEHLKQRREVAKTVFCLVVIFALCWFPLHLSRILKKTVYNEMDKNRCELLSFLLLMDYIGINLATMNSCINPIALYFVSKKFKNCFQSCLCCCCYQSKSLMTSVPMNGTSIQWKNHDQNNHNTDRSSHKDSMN

[4] = target: T3, 3-hydroxy-3-methylglutaryl-coenzyme A reductase (Homo sapiens, UniProt P04035); set-up: species or system Escherichia coli;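 note: enzyme inhibition assay of HMG-CoA reductase using radiolabeled [14C]HMG-CoA as substrate; in other assays of this panel Not Active means under 50% inhibition at 10 µM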
T3 sequence (P04035 whole entry): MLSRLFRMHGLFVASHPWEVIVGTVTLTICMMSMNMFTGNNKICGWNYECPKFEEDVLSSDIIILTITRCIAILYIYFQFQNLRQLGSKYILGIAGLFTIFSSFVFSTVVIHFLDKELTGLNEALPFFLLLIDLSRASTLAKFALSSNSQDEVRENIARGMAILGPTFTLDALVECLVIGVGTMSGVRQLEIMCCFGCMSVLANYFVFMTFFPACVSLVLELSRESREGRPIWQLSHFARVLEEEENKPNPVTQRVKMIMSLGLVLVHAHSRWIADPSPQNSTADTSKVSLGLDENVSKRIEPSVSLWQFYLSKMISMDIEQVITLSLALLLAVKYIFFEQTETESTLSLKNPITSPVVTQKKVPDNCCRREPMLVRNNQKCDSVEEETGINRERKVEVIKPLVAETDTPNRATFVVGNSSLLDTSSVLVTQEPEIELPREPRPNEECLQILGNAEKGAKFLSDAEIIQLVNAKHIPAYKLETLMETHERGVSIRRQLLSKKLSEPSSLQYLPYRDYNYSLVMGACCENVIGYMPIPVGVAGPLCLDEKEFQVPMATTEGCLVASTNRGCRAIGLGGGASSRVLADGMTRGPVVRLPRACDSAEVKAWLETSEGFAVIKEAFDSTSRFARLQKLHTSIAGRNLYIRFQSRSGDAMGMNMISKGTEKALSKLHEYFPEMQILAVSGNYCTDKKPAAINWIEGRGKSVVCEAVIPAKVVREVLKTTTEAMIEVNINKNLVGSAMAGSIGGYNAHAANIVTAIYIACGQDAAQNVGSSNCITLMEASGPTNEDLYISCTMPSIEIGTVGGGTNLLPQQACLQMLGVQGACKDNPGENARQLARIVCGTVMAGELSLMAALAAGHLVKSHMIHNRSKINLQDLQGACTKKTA

Melanocortin receptor 4 = Melanocortin receptor 4 (Homo sapiens, UniProt P32245); format: cell membranes, Membrane; conditions: hek293; note: in other assays of this panel Not Active means under 50% inhibition at 10 µM
Caspase-1 = target: T4, Caspase-1 (Homo sapiens, UniProt P29466); set-up: species or system Escherichia coli
T4 sequence (P29466 whole entry): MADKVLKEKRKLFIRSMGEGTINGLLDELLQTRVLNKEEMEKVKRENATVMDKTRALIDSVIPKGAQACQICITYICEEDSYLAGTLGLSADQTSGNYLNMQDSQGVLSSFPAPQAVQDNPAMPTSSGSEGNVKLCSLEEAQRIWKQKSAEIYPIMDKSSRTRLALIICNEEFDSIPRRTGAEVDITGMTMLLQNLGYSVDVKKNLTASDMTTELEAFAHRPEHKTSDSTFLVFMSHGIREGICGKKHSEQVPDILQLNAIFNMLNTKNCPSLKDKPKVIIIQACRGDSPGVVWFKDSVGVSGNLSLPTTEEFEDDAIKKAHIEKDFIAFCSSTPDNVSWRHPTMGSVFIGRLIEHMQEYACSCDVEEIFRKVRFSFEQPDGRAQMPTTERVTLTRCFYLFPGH

[5] = target: Receptor tyrosine-protein kinase erbB-2 (Homo sapiens, UniProt P04626); assay: biochemical; format: cell-based, Insect cells; conditions: insect cells

Sequence of Melanocortin receptor 4 (P32245 whole entry): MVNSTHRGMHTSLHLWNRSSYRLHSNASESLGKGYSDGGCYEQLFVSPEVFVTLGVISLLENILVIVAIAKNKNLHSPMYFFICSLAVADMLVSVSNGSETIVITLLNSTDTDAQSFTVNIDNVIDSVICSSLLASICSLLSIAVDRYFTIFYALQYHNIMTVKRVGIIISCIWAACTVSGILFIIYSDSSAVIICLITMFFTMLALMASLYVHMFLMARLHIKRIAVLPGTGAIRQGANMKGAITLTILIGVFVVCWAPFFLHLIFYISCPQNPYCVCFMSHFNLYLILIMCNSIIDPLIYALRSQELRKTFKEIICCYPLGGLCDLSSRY
Sequence of Sodium-dependent dopamine transporter (Q01959 whole entry): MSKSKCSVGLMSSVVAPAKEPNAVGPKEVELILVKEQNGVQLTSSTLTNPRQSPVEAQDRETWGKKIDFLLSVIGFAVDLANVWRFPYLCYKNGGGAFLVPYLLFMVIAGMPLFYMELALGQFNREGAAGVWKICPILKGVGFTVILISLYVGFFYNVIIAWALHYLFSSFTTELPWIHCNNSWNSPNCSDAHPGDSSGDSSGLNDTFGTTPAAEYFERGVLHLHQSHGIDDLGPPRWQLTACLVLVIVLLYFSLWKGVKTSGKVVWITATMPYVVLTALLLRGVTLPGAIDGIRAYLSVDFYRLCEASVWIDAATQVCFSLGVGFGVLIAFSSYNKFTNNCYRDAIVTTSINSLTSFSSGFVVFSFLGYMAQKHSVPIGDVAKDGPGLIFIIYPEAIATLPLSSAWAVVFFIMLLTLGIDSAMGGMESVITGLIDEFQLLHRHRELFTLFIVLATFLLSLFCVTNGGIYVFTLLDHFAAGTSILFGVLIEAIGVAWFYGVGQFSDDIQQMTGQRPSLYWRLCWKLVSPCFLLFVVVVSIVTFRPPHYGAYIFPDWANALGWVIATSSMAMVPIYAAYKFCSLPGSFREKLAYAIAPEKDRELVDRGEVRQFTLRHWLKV

O=C(O)C(Cl)(Cl)Cl [TRICHLOROACETIC ACID]
Not Active: IC50 [1] | Ki [1] | IC50 [2] | IC50 [3] | IC50 (Endothelin-1 receptor) | IC50 [4] | IC50 (Melanocortin receptor 4) | IC50 (Caspase-1) | IC50 [5]

COc1ccc(CN2CCNCC2)c(OC)c1OC [TRIMETAZIDINE]
Not Active: IC50 [1] | Ki [1] | IC50 [2] | IC50 [3] | IC50 (Endothelin-1 receptor) | IC50 [4] | IC50 (Melanocortin receptor 4) | IC50 (Caspase-1) | IC50 [5]

CC(=O)O[C@H]1C[C@@H]2CC[C@@H]3[C@H](CC[C@@]4(C)[C@H]3C[C@H]([N+]3(C)CCCCC3)[C@@H]4OC(C)=O)[C@@]2(C)C[C@@H]1N1CCCCC1.[Br-] [VECURONIUM BROMIDE]
Not Active: IC50 [1] | Ki [1] | IC50 [2] | IC50 [3] | IC50 (Endothelin-1 receptor) | IC50 [4] | IC50 (Melanocortin receptor 4) | IC50 (Caspase-1) | IC50 [5]

COc1cc(C(=O)NS(=O)(=O)c2ccccc2C)ccc1Cc1cn(C)c2ccc(NC(=O)OC3CCCC3)cc12 [ZAFIRLUKAST]
Not Active: IC50 [1] | Ki [1] | IC50 [2] | IC50 [3] | IC50 (Endothelin-1 receptor) | IC50 [4] | IC50 (Melanocortin receptor 4) | IC50 (Caspase-1) | IC50 [5]

Cc1cn([C@H]2C[C@H](N=[N+]=[N-])[C@@H](CO)O2)c(=O)[nH]c1=O [ZIDOVUDINE]
Not Active: IC50 [1] | Ki [1] | IC50 [2] | IC50 [3] | IC50 (Endothelin-1 receptor) | IC50 [4] | IC50 (Melanocortin receptor 4) | IC50 (Caspase-1) | IC50 [5]

STANNOUS FLUORIDE
Not Active: IC50 [1] | Ki [1] | IC50 [2] | Ki [2] | IC50 [3] | Ki [3] | IC50 (Endothelin-1 receptor) | Ki (Endothelin-1 receptor) | IC50 [4] | Ki [4] | IC50 (Melanocortin receptor 4) | Ki (Melanocortin receptor 4) | IC50 (Caspase-1) | Ki (Caspase-1) | IC50 [5] | Ki [5]

THIMEROSAL
Not Active: IC50 [1] | Ki [1] | IC50 [2] | Ki [2] | IC50 [3] | Ki [3] | IC50 (Endothelin-1 receptor) | Ki (Endothelin-1 receptor) | IC50 [4] | Ki [4] | IC50 (Melanocortin receptor 4) | Ki (Melanocortin receptor 4) | IC50 (Caspase-1) | Ki (Caspase-1) | IC50 [5] | Ki [5]
